Active and inactive are the calls of the source. How the calls were made is not given here.
Test system: rodent carcinogenicity bioassays, tumor incidence
Assay: CCRIS carcinogenicity studies
Method in brief: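 Archive of carcinogenicity, mutagenicity, tumor promotion and tumor inhibition results drawn from journals, NCI reports and other sources, expert-reviewed; covers 1985-2011 and is no longer updated.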

## FC(F)Cl
Species: MOUSE, Strain/Sex: SWISS/FEMALE, Route: INHALATION, Dose: 0, 1000, 5000 PPM 4 HR/D 5 D/WK FOR 78 WK (STUDY DURATION: LIFETIME), Dose: 0, 1000, 5000 PPM 4 HR/D 5 D/WK FOR 78 WK (STUDY DURATION: LIFETIME)
  carcinogen call: inactive; negative
Species: MOUSE, Strain/Sex: SWISS/MALE, Route: INHALATION, Dose: 0, 1000, 5000 PPM 4 HR/D 5 D/WK FOR 78 WK (STUDY DURATION: LIFETIME), Dose: 0, 1000, 5000 PPM 4 HR/D 5 D/WK FOR 78 WK (STUDY DURATION: LIFETIME)
  carcinogen call: inactive; negative
Species: RAT, Strain/Sex: SPRAGUE-DAWLEY/FEMALE, Route: INHALATION, Dose: 0, 1000, 5000 PPM 4 HR/D 5 D/WK FOR 104 WK (STUDY DURATION: LIFETIME), Dose: 0, 1000, 5000 PPM 4 HR/D 5 D/WK FOR 104 WK (STUDY DURATION: LIFETIME)
  carcinogen call: inactive; negative
Species: RAT, Strain/Sex: SPRAGUE-DAWLEY/FEMALE, Route: INHALATION, Dose: 0, 1000, 5000 PPM IN AIR 4 HR/D 5 D/WK FOR 104 WK (STUDY DURATION: LIFETIME), Dose: 0, 1000, 5000 PPM IN AIR 4 HR/D 5 D/WK FOR 104 WK (STUDY DURATION: LIFETIME), Tumor Site: Type of Lesion: [BRAIN WAS ONLY SITE EVALUATED]
  carcinogen call: inactive; negative
Species: RAT, Strain/Sex: SPRAGUE-DAWLEY/MALE, Route: INHALATION, Dose: 0, 1000, 5000 PPM 4 HR/D 5 D/WK FOR 104 WK (STUDY DURATION: LIFETIME), Dose: 0, 1000, 5000 PPM 4 HR/D 5 D/WK FOR 104 WK (STUDY DURATION: LIFETIME)
  carcinogen call: inactive; negative
Species: RAT, Strain/Sex: SPRAGUE-DAWLEY/MALE, Route: INHALATION, Dose: 0, 1000, 5000 PPM IN AIR 4 HR/D 5 D/WK FOR 104 WK (STUDY DURATION: LIFETIME), Dose: 0, 1000, 5000 PPM IN AIR 4 HR/D 5 D/WK FOR 104 WK (STUDY DURATION: LIFETIME), Tumor Site: Type of Lesion: [BRAIN WAS ONLY SITE EVALUATED]
  carcinogen call: inactive; negative

## O=[N+]([O-])c1c2ccccc2cc2c3ccccc3c3ccccc3c12
Species: MOUSE, Strain/Sex: B6C3F1/MALE, Route: INTRAPERITONEAL, Dose: 0, 400 NMOL IN 35 µL DMSO ON DAYS 1 (1/7 TOTAL DOSE), 8 (2/7 TOTAL DOSE), AND 15 (4/7 TOTAL DOSE) AFTER BIRTH (STUDY DUR
  carcinogen call: inactive; negative

## CC1(C)C(C(=O)OC(C#N)c2cccc(Oc3ccccc3)c2)C1(C)C (stereo unspecified)
Species: Mouse, Strain/Sex: CD-1/Female (52/Group), Dose: 0, 40, 150, 600 ppm of 91.4 - 92.5 % fenpropathrin in diet for 2 yr, study duration 2 yr, Dose: 0, 40, 150, 600 ppm of 91.4 - 92.5 % fenpropathrin in diet for 2 yr, study duration 2 yr
  carcinogen call: inactive; negative
Species: Mouse, Strain/Sex: CD-1/Male (52/Group), Dose: 0, 40, 150, 600 ppm of 91.4 - 92.5 % fenpropathrin in diet for 2 yr, study duration 2 yr, Dose: 0, 40, 150, 600 ppm of 91.4 - 92.5 % fenpropathrin in diet for 2 yr, study duration 2 yr
  carcinogen call: inactive; negative
Species: Rat, Strain/Sex: CD/Female (50/Group), Route: Oral, Dose: 0, 50, 150, 450 ppm of 91.4-92.5% fenpropathrin in diet for >52 wk, study duration up to 2 yr, Dose: 0, 50, 150, 450 ppm of 91.4-92.5% fenpropathrin in diet for >52 wk, study duration up to 2 yr
  carcinogen call: inactive; negative
Species: Rat, Strain/Sex: CD/Male (50/Group), Route: Oral, Dose: 0, 50, 150, 450 ppm of 91.4-92.5% fenpropathrin in diet for >52 wk, study duration up to 2 yr, Dose: 0, 50, 150, 450 ppm of 91.4-92.5% fenpropathrin in diet for >52 wk, study duration up to 2 yr
  carcinogen call: inactive; negative

## CC1CN(N=O)CC(C)O1 (stereo unspecified)
Species: FISH, Strain/Sex: SHASTA RAINBOW TROUT/MALE, FEMALE, Route: ORAL, Dose: 0, 1556 PPM IN DIET FOR 18 MO (STUDY DURATION: 18 MO), Tumor Site: Type of Lesion: LIVER: CARCINOMA, STOMACH: PAPILLOMA
  carcinogen call: active; positive
Species: HAMSTER, Strain/Sex: EUROPEAN/FEMALE, Route: GAVAGE, Dose: 0, 37 MG/KG 1/WK FOR DURATION OF STUDY (STUDY DURATION: LIFETIME), Tumor Site: Type of Lesion: NASAL CAVITY: TUMOR, TRACHEA: TUMOR, LIVER: HEMANGIOENDOTHELIOMA, Tumor Site: Type of Lesion: NASAL CAVITY: TUMOR, TRACHEA: TUMOR, LIVER: HEMANGIOENDOTHELIOMA
  carcinogen call: active; positive
Species: HAMSTER, Strain/Sex: EUROPEAN/FEMALE, Route: GAVAGE, Dose: 0, 112 MG/KG 1/WK FOR DURATION OF STUDY (STUDY DURATION: LIFETIME), Tumor Site: Type of Lesion: NASAL CAVITY: TUMOR, TRACHEA: TUMOR, LUNG: TUMOR, Tumor Site: Type of Lesion: NASAL CAVITY: TUMOR, TRACHEA: TUMOR, LUNG: TUMOR
  carcinogen call: active; positive
Species: HAMSTER, Strain/Sex: EUROPEAN/FEMALE, Route: SUBCUTANEOUS, Dose: 0, 85 MG/KG 1/WK FOR DURATION OF STUDY (STUDY DURATION: LIFETIME), Tumor Site: Type of Lesion: NASAL CAVITY: TUMOR, LARYNX: TUMOR, TRACHEA: TUMOR, LUNG: TUMOR, Tumor Site: Type of Lesion: NASAL CAVITY: TUMOR, LARYNX: TUMOR, TRACHEA: TUMOR, LUNG: TUMOR
  carcinogen call: active; positive
Species: HAMSTER, Strain/Sex: EUROPEAN/MALE, Route: GAVAGE, Dose: 0, 37 MG/KG 1/WK FOR DURATION OF STUDY (STUDY DURATION: LIFETIME), Tumor Site: Type of Lesion: NASAL CAVITY: TUMOR, LIVER: HEMANGIOENDOTHELIOMA
  carcinogen call: active; positive
Species: HAMSTER, Strain/Sex: EUROPEAN/MALE, Route: GAVAGE, Dose: 0, 112 MG/KG 1/WK FOR DURATION OF STUDY (STUDY DURATION: LIFETIME), Tumor Site: Type of Lesion: NASAL CAVITY: TUMOR, LUNG: TUMOR
  carcinogen call: active; positive
Species: HAMSTER, Strain/Sex: EUROPEAN/MALE, Route: SUBCUTANEOUS, Dose: 0, 85 MG/KG 1/WK FOR DURATION OF STUDY (STUDY DURATION: LIFETIME), Tumor Site: Type of Lesion: NASAL CAVITY: TUMOR, LARYNX: TUMOR, TRACHEA: TUMOR, LUNG: TUMOR, Tumor Site: Type of Lesion: NASAL CAVITY: TUMOR, LARYNX: TUMOR, TRACHEA: TUMOR, LUNG: TUMOR
  carcinogen call: active; positive
Species: HAMSTER, Strain/Sex: SYRIAN/MALE,FEMALE, Route: GAVAGE, Dose: 9-74 MG/KG 1/WK FOR LIFE, Tumor Site: Type of Lesion: PANCREAS, TRACHEA, LUNG, LIVER, NASAL CAVITY, FORESTOMACH, GALL BLADDER, LARYNX, Tumor Site: Type of Lesion: PANCREAS, TRACHEA, LUNG, LIVER, NASAL CAVITY, FORESTOMACH, GALL BLADDER, LARYNX
  carcinogen call: active; positive
Species: HAMSTER, Strain/Sex: SYRIAN/MALE,FEMALE, Route: SUBCUTANEOUS, Dose: 8, 16, 32 MG/KG 1/WK FOR LIFE, Dose: 8, 16, 32 MG/KG 1/WK FOR LIFE, Tumor Site: Type of Lesion: NASAL CAVITY, LARYNX, TRACHEA, LUNG, FORESTOMACH, PANCREAS, VAGINA, Tumor Site: Type of Lesion: NASAL CAVITY, LARYNX, TRACHEA, LUNG, FORESTOMACH, PANCREAS, VAGINA
  carcinogen call: active; positive
Species: RAT, Strain/Sex: F344/FEMALE, Route: INTRAVESICULAR, Dose: 0, 6 MG IN 0.2 ML ETHANOL: DEIONIZED WATER (1:3) 2/WK FOR 18 WK (TOTAL DOSE 1.5 MMOL) (STUDY DURATION: LIFESPAN), Tumor Site: Type of Lesion: ESOPHAGUS: TUMOR
  carcinogen call: active; positive
Species: RAT, Strain/Sex: F344/FEMALE, Route: ORAL, Dose: 20 MG/L IN DRINKING WATER FOR 30 WK, Tumor Site: Type of Lesion: ESOPHAGUS: PAPILLOMA, CARCINOMA, TONGUE: PAPILLOMA, CARCINOMA
  carcinogen call: active; positive
Species: RAT, Strain/Sex: F344/FEMALE, Route: ORAL, Dose: 50 MG/L IN DRINKING WATER FOR 22 WK, Tumor Site: Type of Lesion: ESOPHAGUS: PAPILLOMA, CARCINOMA
  carcinogen call: active; positive
Species: RAT, Strain/Sex: SPRAGUE-DAWLEY/MALE,FEMALE, Route: SUBCUTANEOUS, Dose: 0, 1/100, 1/10 OF LD50 1/WK FOR LIFE (STUDY DURATION: LIFETIME), Dose: 0, 1/100, 1/10 OF LD50 1/WK FOR LIFE (STUDY DURATION: LIFETIME), Tumor Site: Type of Lesion: ESOPHAGUS: CARCINOMA
  carcinogen call: active; positive
Species: RAT, Strain/Sex: SPRAGUE-DAWLEY/MALE,FEMALE, Route: SUBCUTANEOUS, Dose: 0, 1/100, 1/10 OF LD50 1/WK FOR LIFE TO RATS WITH ESOPHAGOJEJUNOSTOMY (STUDY DURATION: LIFETIME), Dose: 0, 1/100, 1/10 OF LD50 1/WK FOR LIFE TO RATS WITH ESOPHAGOJEJUNOSTOMY (STUDY DURATION: LIFETIME), Tumor Site: Type of Lesion: ESOPHAGUS: CARCINOMA
  carcinogen call: active; positive
Species: RAT, Strain/Sex: SPRAGUE-DAWLEY/MALE, Route: ORAL, Dose: 50 MG/L IN DRINKING WATER (20 ML/D 5 D/WK) FOR 30 WK, Tumor Site: Type of Lesion: ESOPHAGUS: PAPILLOMA, SQUAMOUS CELL CARCINOMA, NASAL TURBINATES: ADENOCARCINOMA
  carcinogen call: active; positive
